According to the NIST ThermoML archive (doi:10.1021/je400841s):

Settings: 101.33 kPa, Liquid; for mass density: Vibrating tube method; for viscosity: Concentric cylinders viscometry; for electrical conductivity: impedancemetry (AC impedance bridge)

CCCCn1cc[n+](C)c1.COS(=O)(=O)[O-] [1-butyl-3-methylimidazolium methyl sulfate]
Settings	electrical conductivity [S/m]	mass density [kg/m3]	viscosity [mPa·s]
298.08 K	–	1210.5	–
298.15 K	0.126	–	223
302.78 K	–	1207.6	–
303.15 K	0.16	–	–
312.49 K	–	1201.4	–
313.15 K	0.254	–	101
322.23 K	–	1195	–
323.15 K	0.382	–	64.3
332.16 K	–	1188.7	–
333.15 K	0.551	–	43.6
341.68 K	–	1182.9	–
343.15 K	0.757	–	31.1

CCCCn1cc[n+](C)c1.O=S(=O)([O-])C(F)(F)F [1-butyl-3-methylimidazolium trifluoromethanesulfonate]
Settings	electrical conductivity [S/m]	mass density [kg/m3]	viscosity [mPa·s]
297.98 K	–	1294.7	–
298.15 K	0.301	–	86.6
302.79 K	–	1291.3	–
303.15 K	0.378	–	–
313 K	–	1283.1	–
313.15 K	0.553	–	45.6
323.12 K	–	1275.2	–
323.15 K	0.763	–	31.6
333.12 K	–	1267.4	–
333.15 K	1.01	–	23
343.12 K	–	1259.8	–
343.15 K	1.29	–	17.2

CCn1cc[n+](C)c1.COS(=O)(=O)[O-] [1-ethyl-3-methylimidazolium methylsulfate]
Settings	electrical conductivity [S/m]	mass density [kg/m3]	viscosity [mPa·s]
298.03 K	–	1282.1	–
298.15 K	0.602	–	74.3
303.15 K	0.723	–	–
312.67 K	–	1272.2	–
313.15 K	1.02	–	40.6
322.6 K	–	1265.8	–
323.15 K	1.39	–	28.8
332.35 K	–	1259.4	–
333.15 K	1.84	–	21.2
342.22 K	–	1252.9	–
343.15 K	2.34	–	16.1

CCn1cc[n+](C)c1.O=S(=O)([O-])C(F)(F)F [1-ethyl-3-methylimidazolium trifluoromethanesulfonate]
Settings	electrical conductivity [S/m]	mass density [kg/m3]	viscosity [mPa·s]
293.15 K	–	1382.9	–
298.15 K	0.913	–	45.9
303.14 K	–	1374.6	–
313.14 K	–	1366.3	–
313.15 K	1.45	–	27.6
323.14 K	–	1358	–
323.15 K	1.74	–	20.2
333.14 K	–	1349.8	–
333.15 K	2.19	–	15.5
343.14 K	–	1341.7	–
343.15 K	2.6	–	12.3
353.14 K	–	1333.7	–
